Tests used:
[1] = test system: Proto-oncogene tyrosine-protein kinase receptor Ret (Homo sapiens), P07949 [V804M]; details: BaF3
[2] = Cytotoxicity against human Nthy-ori 3-1 cells after 10 days by MTT assay; assay type: cell-based
[3] = molecular target: Proto-oncogene tyrosine-protein kinase receptor Ret (Homo sapiens, UniProt P07949, V804M); test: Inhibition of human Ret V804M mutant by radiometric assay in presence of [gamma-33P]-ATP
[4] = test system: Proto-oncogene tyrosine-protein kinase receptor Ret (Homo sapiens), P07949 [C634W]; details: TT
Description: Inhibition of RET C634W mutant in human TT cells assessed as cell growth inhibition after 10 days by MTT assay

[5] = Cytotoxicity against mouse BAF3 cells after 48 hrs by MTT assay; assay type: cell-based
[6] = molecular target: T1, Proto-oncogene tyrosine-protein kinase receptor Ret (Homo sapiens, UniProt P07949); test: Inhibition of human wild type RET by radiometric assay in presence of [gamma-33P]-ATP
[7] = molecular target: T1, Proto-oncogene tyrosine-protein kinase receptor Ret; details: BaF3
Description: Inhibition of wild type TEL-fused RET (unknown origin) expressed in mouse BA/F3 cells assessed as cell growth inhibition after 48 hrs by MTT assay

[8] = Cell cycle arrest in human Nthy-ori 3-1 cells assessed as accumulation at G2 phase at 10 uM after 24 hrs by […] staining-based flow cytometric analysis; details: nthy-ori 3-1, 24 h
[9] = test system: Proto-oncogene tyrosine-protein kinase receptor Ret (Homo sapiens), P07949 [V804L]; details: BaF3
[10] = test system: Proto-oncogene tyrosine-protein kinase receptor Ret (Homo sapiens), P07949 [S891A]; details: BaF3
[11] = Induction of apoptosis in human Nthy-ori 3-1 cells at 10 uM after 48 hrs by annexinV/PI staining-based flow cytometric analysis; assay type: cell-based; details: nthy-ori 3-1, 48 h
TT = test: Cytotoxicity against human TT cells assessed as suppression of anchorage-independent growth at 1 uM for 30 days by soft agar assay; assay type: functional

Chain of Proto-oncogene tyrosine-protein kinase receptor Ret (Homo sapiens, UniProt P07949, V804M) (P07949 29-1114 V804M limits assumed): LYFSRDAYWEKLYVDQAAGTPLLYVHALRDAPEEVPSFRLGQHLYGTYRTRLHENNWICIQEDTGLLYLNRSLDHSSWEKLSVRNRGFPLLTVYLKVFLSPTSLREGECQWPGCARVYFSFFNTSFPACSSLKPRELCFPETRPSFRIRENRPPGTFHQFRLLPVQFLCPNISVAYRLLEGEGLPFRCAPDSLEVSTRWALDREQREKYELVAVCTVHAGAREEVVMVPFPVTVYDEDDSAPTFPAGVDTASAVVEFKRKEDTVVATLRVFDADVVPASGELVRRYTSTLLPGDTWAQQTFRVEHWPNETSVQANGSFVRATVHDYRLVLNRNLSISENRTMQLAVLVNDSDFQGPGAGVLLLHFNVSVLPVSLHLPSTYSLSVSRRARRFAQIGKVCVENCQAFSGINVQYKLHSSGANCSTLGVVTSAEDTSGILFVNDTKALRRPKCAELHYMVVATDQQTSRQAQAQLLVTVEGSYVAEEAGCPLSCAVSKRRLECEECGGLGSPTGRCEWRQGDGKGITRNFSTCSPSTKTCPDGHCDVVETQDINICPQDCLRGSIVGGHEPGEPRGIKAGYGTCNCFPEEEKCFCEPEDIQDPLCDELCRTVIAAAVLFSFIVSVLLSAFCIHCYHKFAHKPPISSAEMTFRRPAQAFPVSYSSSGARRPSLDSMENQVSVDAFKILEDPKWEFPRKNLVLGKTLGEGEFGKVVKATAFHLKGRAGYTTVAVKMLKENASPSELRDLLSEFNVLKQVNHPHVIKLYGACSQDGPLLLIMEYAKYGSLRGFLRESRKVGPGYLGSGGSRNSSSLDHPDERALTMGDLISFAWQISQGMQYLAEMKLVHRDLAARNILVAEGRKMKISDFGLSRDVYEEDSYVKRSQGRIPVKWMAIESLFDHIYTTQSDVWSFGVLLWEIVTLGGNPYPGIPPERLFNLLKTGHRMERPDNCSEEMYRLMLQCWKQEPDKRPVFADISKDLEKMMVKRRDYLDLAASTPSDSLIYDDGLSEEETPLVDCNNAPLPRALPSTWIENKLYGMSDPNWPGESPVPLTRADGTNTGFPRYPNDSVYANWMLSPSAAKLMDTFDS
Chain of Proto-oncogene tyrosine-protein kinase receptor Ret (Homo sapiens), P07949 [V804M] (P07949 whole entry V804M): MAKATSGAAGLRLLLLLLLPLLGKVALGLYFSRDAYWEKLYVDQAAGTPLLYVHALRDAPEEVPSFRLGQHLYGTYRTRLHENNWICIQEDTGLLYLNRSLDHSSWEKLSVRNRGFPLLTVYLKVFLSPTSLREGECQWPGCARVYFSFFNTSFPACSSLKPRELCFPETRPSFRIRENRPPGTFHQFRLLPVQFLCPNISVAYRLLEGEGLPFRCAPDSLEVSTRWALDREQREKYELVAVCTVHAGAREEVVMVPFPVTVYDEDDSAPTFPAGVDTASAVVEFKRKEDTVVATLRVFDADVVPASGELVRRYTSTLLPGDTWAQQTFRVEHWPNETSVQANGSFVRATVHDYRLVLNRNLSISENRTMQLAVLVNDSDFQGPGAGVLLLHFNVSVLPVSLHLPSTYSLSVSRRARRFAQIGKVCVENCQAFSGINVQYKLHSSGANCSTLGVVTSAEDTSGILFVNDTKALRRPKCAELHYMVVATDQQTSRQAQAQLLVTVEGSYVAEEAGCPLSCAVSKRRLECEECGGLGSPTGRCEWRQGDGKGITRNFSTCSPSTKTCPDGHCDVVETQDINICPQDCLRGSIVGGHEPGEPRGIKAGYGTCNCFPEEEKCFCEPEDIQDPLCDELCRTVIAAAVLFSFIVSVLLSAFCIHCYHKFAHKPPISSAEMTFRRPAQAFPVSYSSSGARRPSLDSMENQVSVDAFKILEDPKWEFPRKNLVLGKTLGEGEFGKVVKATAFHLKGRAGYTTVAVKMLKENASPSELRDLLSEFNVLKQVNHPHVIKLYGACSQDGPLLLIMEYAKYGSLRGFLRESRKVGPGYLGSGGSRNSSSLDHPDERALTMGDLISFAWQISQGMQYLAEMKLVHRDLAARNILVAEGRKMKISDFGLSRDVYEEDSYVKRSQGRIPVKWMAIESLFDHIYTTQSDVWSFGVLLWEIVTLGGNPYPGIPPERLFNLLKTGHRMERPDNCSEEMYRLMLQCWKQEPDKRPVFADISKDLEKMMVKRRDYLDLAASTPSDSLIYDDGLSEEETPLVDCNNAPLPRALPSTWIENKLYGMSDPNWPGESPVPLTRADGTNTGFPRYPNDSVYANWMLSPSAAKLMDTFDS
Chain of Proto-oncogene tyrosine-protein kinase receptor Ret (Homo sapiens), P07949 [C634W] (P07949 whole entry C634W): as the sequence (P07949 whole entry V804M) above, with C634W, M804V counted along it
T1 sequence (P07949 whole entry): as the sequence (P07949 whole entry V804M) above, with M804V counted along it
Chain of Proto-oncogene tyrosine-protein kinase receptor Ret (Homo sapiens), P07949 [S891A] (P07949 whole entry S891A): as the sequence (P07949 whole entry V804M) above, with M804V, S891A counted along it
Chain of Proto-oncogene tyrosine-protein kinase receptor Ret (Homo sapiens), P07949 [V804L] (P07949 whole entry V804L): as the sequence (P07949 whole entry V804M) above, with M804L counted along it

Structure (SMILES)	GI50 [1] [µM]	GI50 at 240 h [2] [µM]	IC50 [3] [µM]	GI50 [4] [µM]	GI50 at 48 h [5] [µM]	IC50 [6] [µM]	GI50 [7] [µM]	Activity [8]	GI50 [9] [µM]	GI50 [10] [µM]	Activity [11]	Activity (TT) [CFU]
CC(C)n1nc(-c2cc(C(C)(C)C)on2)c2c(N)ncnc21	7.31	24.7	2.1	> 10	> 10	0.21	6.12	–	–	–	–	–
CC(C)n1nc(-c2ccon2)c2c(N)ncnc21	8.94	18.6	0.903	7.92	> 10	0.213	3.21	–	–	–	–	–
Nc1ncnc2c1c(-c1cc(C3CC3)on1)nn2Cc1ccccc1	> 10	39.6	0.557	> 10	> 10	0.074	> 10	–	–	–	–	–
CC(C)n1nc(-c2cc(C3CCCC3)on2)c2c(N)ncnc21	> 10	11.5	1.57	> 10	> 10	0.241	7.12	–	–	–	–	–
Nc1ncnc2c1c(-c1cc(C3CC3)on1)nn2C1CCCCC1	2	32.5	0.014	0.29	> 10	0.002	0.52	–	–	–	–	–
CC(C)n1nc(-c2cc(Cc3ccccc3)on2)c2c(N)ncnc21	> 10	21.5	1.99	> 10	> 10	0.241	> 10	–	–	–	–	–
CC(C)(O)Cn1nc(-c2cc(C3CC3)on2)c2c(N)ncnc21	6.75	2.82	0.217	4.25	> 10	0.068	1.77	–	–	–	–	–
Nc1ncnc2[nH]nc(-c3cc(C4CC4)on3)c12	> 10	0.51	0.354	> 10	> 10	0.052	5.34	–	–	–	–	–
COc1cc2nccc(Oc3ccc(NC(=O)C4(C(=O)Nc5ccc(F)cc5)CC4)cc3)c2cc1OC [CABOZANTINIB]	0.89	4.93	–	0.12	–	–	0.05	Toxic	0.91	0.01	Non-toxic	<3
CC(C)c1cc(-c2nn(C(C)C)c3ncnc(N)c23)no1	5.9	23.7	0.355	5.13	> 10	0.041	2.4	–	–	–	–	–
CC(C)n1nc(C2=NOC(c3ccccc3)C2)c2c(N)ncnc21 (centres undefined)	> 10	18.9	5.68	> 10	> 10	0.583	6.24	–	–	–	–	–
